Columns and labels:
[1] = system: pancreatic cancer cell AsPC-1; experiment: Suppressing proliferation of pancreatic cancer cell AsPC-1 in vitro (MTT, number of living cells); type: cell-based; details: Homo sapiens, ASPC1, 72 h, AsPC-1, RPMI 1640 medium, incubated 3 days with test compound
Protocol: (§1) A cell suspension of pancreatic cancer cell AsPC-1 (20000/ml) in RPMI 1640 medium (Flow Laboratories) supplemented with 10% of inactivated fetal calf serum, 1 mM of sodium pyruvate and 25 mM of HEPES [2-{4-(2-hydroxyethyl)-1-piperazinyl}ethanesulfonic acid] was added to 96-well micro-culture plates (50ul/well). The culture plates were incubated at 37°C in a 5% CO₂ incubator. On the following day, the solution of each test compound dissolved in dimethylformamide and diluted (3-fold steps) was added (50 ul/well), which was incubated for further 3 days. The culture broth containing the test compounds was eliminated, and the cells were washed, to which was added a solution of MTT pigment, and the number of living cells was calculated [Tada et al. J. Immunol. Methods, 93 p.157 (1986)]. The number of cells in the control group containing no test compound was assumed to be 100%, and the respective ratios of cell numbers in groups containing the respective test compounds were calculated to thereby determine the concentrations (IC₅₀ value) of the respective test compounds necessary to suppress the number of living cells to 50% of that of the control group.

[2] = system: pancreatic cancer cell strain PC-3; experiment: Suppressing proliferation of PC-3 cells in vitro (MTT, number of living cells); type: cell-based; details: 96 h, PC-3, F-12K medium, incubated 4 days with test compound
Protocol: as §1
For the test of pancreatic cancer cell strain PC-3, the same method in the case of AcPC-1 was employed excepting the use of F-12K medium containing 10% inactivated fetal calf serum (Flow Laboratories) and change of the incubation period after adding the test compounds to 4 days, to thereby determine the IC₅₀ value (nm).

Row | IC50 [1] | IC50 [2] | SMILES
1 | 54 nM | 6 nM | COc1cc(OC)nc(-c2ccc(CSc3cnn(C(C)(C)C)c(=O)c3Cl)cc2)n1 [Compound 98, 2-t-butyl-4-chloro-5-[4-[2-(4,6-dimethoxy)pyrimidyl]]benzylthio-3(2H)-pyridazinone]
2 | 5 nM | 2 nM | CC(C)(C)n1ncc(OCc2ccc(-c3ccccn3)cc2)c(Cl)c1=O [Compound 42, 2-t-butyl-4-chloro-5-{4-(2-pyridyl)benzyloxy}-3(2H)-pyridazinone]
3 | 550 nM | 3 nM | CC(C)(C)n1ncc(SCc2ccc(-c3cc[nH]n3)cc2)c(Cl)c1=O [Compound 111, 2-t-butyl-4-chloro-5-[4-(1H-pyrazol-3-yl)benzylthio]-3(2H)-pyridazinone]
4 | 15 nM | < 1.52 nM | CC(C)(C)n1ncc(SCc2ccc3ccccc3c2)c(Cl)c1=O [Compound 4, 2-t-butyl-4-chloro-5-(2-naphthyl)methylthio-3(2H)pyridazinone]
5 | 33 nM | 2 nM | CC(C)(C)n1ncc(SCc2ccc(-c3csc(N)n3)cc2)c(Cl)c1=O [Compound 102]
6 | 370 nM | < 1.52 nM | CC(C)(C)n1ncc(SCc2ccc(-c3cnco3)cc2)c(Cl)c1=O [Compound 119, 2-t-butyl-4-chloro-5-[4-(1,3-oxazol-5-yl)benzylthio]-3(2H)-pyridazinone]
7 | 12 nM | < 1.52 nM | CC(C)(C)n1ncc(SC(CO)c2ccc(-c3ccccc3)cc2)c(Cl)c1=O (centres unmarked) [Compound 85, 2-t-butyl-4-chloro-5-[2-hydroxy-1-(p-biphenyl)]ethylthio-3(2H)-pyridazinone]
8 | 100 nM | 2 nM | CC(C)(C)n1ncc(SCc2ccc(-c3ncns3)cc2)c(Cl)c1=O [Compound 117, 2-t-butyl-4-chloro-5-[4-(1,2,4-thiadiazol-5-yl)benzylthio]-3(2H)-pyridazinone]
9 | 29 nM | < 1.52 nM | CC(C)(C)n1ncc(SCc2ccc(OCc3ccccc3)cc2)c(Cl)c1=O [Compound 74, 5-(4-benzyloxybenzylthio)-2-t-butyl-4-chloro-3(2H)-pyridazinone]
10 | 250 nM | 210 nM | CC(C)(C)n1ncc(OCc2ccc(-c3csc(N)n3)cc2)c(Cl)c1=O [Compound 103]
11 | 59 nM | 56 nM | CC(C)(C)n1ncc(SCc2ccc(C(F)(F)F)cc2)c(Cl)c1=O [Compound 17, 2-t-butyl-4-chloro-5-(4-trifluoromethyl) benzylthio-3(2H)pyridazinone]
12 | 49 nM | < 1.52 nM | CC(C)(C)n1ncc(SCc2ccc(-c3csnn3)cc2)c(Cl)c1=O [Compound 115, 2-t-butyl-4-chloro-5-[4-(1,2,3-thiadiazol-4-yl)benzylthio]-3(2H)-pyridazinone]
13 | 11 nM | < 1.52 nM | CC(C)(C)n1ncc(SCc2ccc(OCc3ccc(F)cc3)nc2)c(Cl)c1=O [Compound 50, 2-t-butyl-4-chloro-5-[6-(4-fluorobenzyloxy)-3-pyridyl]methylthio-3(2H)-pyridazinone]
14 | < 1.52 nM | < 1.52 nM | CC(C)(C)n1ncc(SCc2ccc(-c3ccccc3C#N)cc2)c(Cl)c1=O [Compound 13, 2-t-butyl-4-chloro-5-{4-(2-cyanophenyl)} benzylthio-3(2H)pyridazinone]
15 | < 1.52 nM | 2 nM | CC(C)(C)n1ncc(SCc2ccc(-c3ccccc3)cc2)c(Cl)c1=O [Compound 3, 2-t-butyl-4-chloro-5-(4-phenyl)benzylthio-3(2H)pyridazinone]

More lines, now with the values behind:

Row | SMILES | IC50 [1] | IC50 [2]
16 | COc1cc(OC)nc(-c2ccc(COc3cnn(C(C)(C)C)c(=O)c3Cl)cc2)n1 [Compound 99, 2-t-butyl-4-chloro-5-[4-[2-(4,6-dimethoxy)pyrimidyl]]benzyloxy-3(2H)-pyridazinone] | 230 nM | 52 nM
17 | CC(C)(C)n1ncc(OCc2ccc(-c3ncccn3)cc2)c(Cl)c1=O [Compound 97, 2-t-butyl-4-chloro-5-[4-(2-pyrimidyl)]benzyloxy-3(2H)-pyridazine] | 280 nM | < 1.52 nM
18 | CC(C)(C)n1ncc(OCc2ccc(-c3csnn3)cc2)c(Cl)c1=O [Compound 116, 2-t-butyl-4-chloro-5-[4-(1,2,3-thiadiazol-4-yl)benzyloxy]-3(2H)-pyridazinone] | 370 nM | 14 nM
19 | CC(C)(C)OC(=O)Nc1cc(-c2ccc(COc3cnn(C(C)(C)C)c(=O)c3Cl)cc2)ccn1 [Compound 91] | 560 nM | 92 nM
20 | CC(C)(C)n1ncc(OCc2ccc(OCc3ccc(F)cc3)nc2)c(Cl)c1=O [Compound 49, 2-t-butyl-4-chloro-5-[6-(4-fluorobenzyloxy)-3-pyridyl]methoxy-3(2H)-pyridazinone] | 120 nM | < 1.52 nM
21 | CC(C)(C)n1ncc(OCc2ccc(C(=O)c3ccc(Cl)cc3)cc2)c(Cl)c1=O [Compound 73, 2-t-butyl-4-chloro-5-[4-(4-chlorobenzoyl)benzyloxy]-3(2H)-pyridazinone] | 8 nM | < 1.52 nM
22 | CC(C)(C)n1ncc(SC(CO)c2ccccc2)c(Cl)c1=O (centres unmarked) [Compound 48, 2-t-butyl-4-chloro-5-(2-hydroxy-1-phenyl) ethylthio-3(2H)-pyridazinone] | 67 nM | 45 nM
23 | CC(C)(C)n1ncc(SCc2ccc(-c3ncccn3)cc2)c(Cl)c1=O [Compound 96, 2-t-butyl-4-chloro-5-[4-(2-pyrimidyl)]benzylthio-3(2H)-pyridazine] | 16 nM | < 1.52 nM
24 | CC(C)(C)n1ncc(OCc2ccc(-c3ccnc(N)c3)cc2)c(Cl)c1=O [Compound 93, 5-[4-[4-(2-amino)pyridyl]benzyloxy]-2-t-butyl-4-chloro-3(2H)-pyridazinone] | 770 nM | 110 nM
25 | CC(C)(C)n1ncc(SCc2ccc(-c3ccno3)cc2)c(Cl)c1=O [Compound 113, 2-t-butyl-4-chloro-5-[4-(1,2-oxazol-5-yl)benzylthio]-3(2H)-pyridazinone] | 120 nM | < 1.52 nM
26 | CC(C)(C)n1ncc(SCC=Cc2ccccc2)c(Cl)c1=O [Compound 6, 2-t-butyl-4-chloro-5-{(3-phenyl)-2-propenylthio}-3(2H)pyridazinone] | 290 nM | 53 nM
27 | CC(C)(C)n1ncc(SCc2ccc3ccccc3n2)c(Cl)c1=O [Compound 12, 2-t-butyl-4-chloro-5-(2-quinolyl)methylthio-3(2H)pyridazinone] | 74 nM | 42 nM
28 | Cc1c(SCc2ccc(C(C)(C)C)cc2)cnn(C(C)(C)C)c1=O [Compound 27, 2-t-butyl-5-(4-t-butyl)benzylthio-4-methyl-3(2H)pyridazinone] | 9 nM | < 1.52 nM
29 | CC(C)(C)n1ncc(OC(CO)c2ccc(-c3ccccc3)cc2)c(Cl)c1=O (centres unmarked) [Compound 83, 2-t-butyl-4-chloro-5-[2-hydroxy-1-(43-biphenyl)]ethoxy-3(2H)-pyridazinone] | 73 nM | 2 nM
30 | Cc1c(OCc2ccc(C(C)(C)C)cc2)cnn(C(C)(C)C)c1=O [Compound 31, 2-t-butyl-5-(4-t-butyl)benzyloxy-4-methyl-3(2H)pyridazinone] | 84 nM | 25 nM
31 | CC(C)(C)n1ncc(OCC(O)c2ccc(-c3ccccc3)cc2)c(Cl)c1=O (centres unmarked) [Compound 82, 2-t-butyl-4-chloro-5-[2-hydroxy-2-(4-biphenyl)]ethoxy-3(2H)-pyridazinone] | 480 nM | 27 nM

— patent publication EP0665223A1, “Antitumor agent, novel 3(2H)-pyridazinone derivatives and their preparation” (TAKEDA CHEMICAL INDUSTRIES, LTD., priority 1994, dated 1995)
